{
  "source": "patent US10174384B2",
  "about": "“Use of the ZMIZ1 marker in directing treatment and predicting survival in cancer” (THE JOHNS HOPKINS UNIVERSITY, priority 2015, dated 2019)",
  "tested_on": "U251 cell line",
  "assay": "Cell titer glo viability, siRNA combined with temozolamide",
  "assay_type": "cell-based",
  "conditions": "three days post treatment, combined with 1 mM temozolamide, p<0.0001 vs siRNA alone, P<0.01 vs temozolamide alone",
  "description": "siRNA s32836 targeting both the full ZMIZ1 transcript (uc001kaf.2) and the truncated ZMIZ1 transcript (uc001kag.2) was purchased from Life Technologies (Grand Island, N.Y., USA), and two custom designed Stealth siRNAs (referred to as 56 and 62) targeting specifically uc001kag.2 were designed (Life Technologies) for all in vitro assays. The sequence of stealth_56 is Sense: […] (SEQ ID NO:23), Anti-Sense: […] (SEQ ID NO:24), the sequence for stealth_62 is Sense: […] (SEQ ID NO:25), Anti-Sense: […] (SEQ ID NO:26). Appropriate scrambled siRNAs were used as controls. Hyper-expressing plasmids were designed for both the full and the truncated plasmids. Appropriate empty vector was used as control for all in vitro assays described. Cells were transfected using Lipofectamine 2000 and the respective siRNA or plasmid and were treated for 6 h. The media was changed after 6 h and the regular culture media was subsequently used.\nU87 and U251 GBM cell lines were treated with varying doses of temozolamide (Sigma Aldrich, St Louis, Mo.). 1000 cells/well were seeded in a 96 well plate. […] Cells were followed for 3 days, and at the third day, viability was assessed with the cell titer glo assay.",
  "data": [
    {"substance": "56 siRNA: custom designed Stealth siRNA targeting specifically uc001kag.2; Sense SEQ ID NO:23, Anti-Sense SEQ ID NO:24 (sense CCGGUGCAACUUCUAGCCUUGUUGU; antisense ACAACAAGGCUAGAAGUUGCACCGG; Stealth siRNA, chemical modification pattern not given here)", "values": [
      {"measurement": "viability, combination compared to siRNA alone or temozolamide alone", "value": "statistically significant decrease in viability"}
    ]}
  ]
}
